Experimental data taken from US9243034B2, “Glycogen synthase kinase-3 inhibitors” (Ramot at Tel-Aviv University Ltd., priority 2011, dated 2016).
Each block holds one molecule with its values, some of them ahead of it. Where a SMILES comes first, the peptide text is derived from it. [ ]: non-standard residue; d: D form. The star is where a group is joined. Myristoyl = CCCCCCCCCCCCCC(=O)*; pS = N[C@@H](COP(=O)(O)O)C(=O)O

Legend:
β-catenin [1] = assay: β-catenin levels in COS-7 cells, Western blot; type: cell-based; details: various concentrations, 5 hour, FIG. 6B
Procedure: In further studies, COS-7 cells were treated with L806-mts at various concentrations for 5 hour.

GSK-3β = biological target: T1, GSK-3β (Homo sapiens, UniProt P49841); assay: In vitro kinase assay with GSK-3β in the presence of peptide inhibitor; type: biochemical
T1 construct: made in house; host or cells: HEK-293 (transient transfection, pCMV4 vector; DE-52 partial purification)
T1 sequence (P49841 1-433 isoform P49841-2): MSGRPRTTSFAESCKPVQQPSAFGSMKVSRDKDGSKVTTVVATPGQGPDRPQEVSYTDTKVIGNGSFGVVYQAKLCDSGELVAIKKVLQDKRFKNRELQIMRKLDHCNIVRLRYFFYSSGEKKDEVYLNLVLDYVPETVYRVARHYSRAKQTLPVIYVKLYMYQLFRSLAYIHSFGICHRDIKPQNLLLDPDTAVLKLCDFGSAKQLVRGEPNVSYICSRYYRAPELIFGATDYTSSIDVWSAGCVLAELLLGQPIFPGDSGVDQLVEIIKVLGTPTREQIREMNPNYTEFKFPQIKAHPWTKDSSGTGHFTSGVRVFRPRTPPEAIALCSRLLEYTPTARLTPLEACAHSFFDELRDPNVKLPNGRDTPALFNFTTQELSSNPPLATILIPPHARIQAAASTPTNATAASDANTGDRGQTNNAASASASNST
Procedure: (§1) (0.5 μCi/assay) for 15 minutes.
The ability of each peptide to inhibit GSK-3β was then determined by in vitro kinase assays as described hereinabove.

[2] = test system: heat shock factor-1 (HSF-1); assay: Phosphorylation of HSF-1 in COS-7 cells, Western blot; type: cell-based; details: FIG. 6C
Procedure: L806-mts-treated COS-7 cells were also tested for phosphorylation of the GSK-3 substrate heat shock factor-1 (HSF-1).

β-catenin [3] = assay: Hippocampus β-catenin levels in mice after nasal administration; type: in vivo, C57BL/6J mice; details: 60 μg peptide/mouse/day, 3 days, vs non-treated
Procedure: C57BL/6J mice (12 week old; obtained from Animal Facilities at Tel Aviv University) were treated with L803-mts or L806-mts via a nasal administration (60 μg peptide/per mouse/per day) for 3 days. Non-treated animals served as control. Brains were removed and hippocampus was homogenized in ice-cold ‘buffer G’(20 mM Tris pH 7.5, 10 mM β-glycerophosphate, 10% glycerol, 1 mM EGTA, 1 mM EDTA, 50 mM NaF, 5 mM sodium pyrophosphate, 0.5 mM orthovanadate, 1 mM benzamidine, 5 μg/ml leupeptin, 25 μg/ml aprotinin, 5 μg/ml pepstatin, and 0.5% Triton X100). Equal amounts of proteins (50 μg) were subjected to gel electrophoresis, transferred to nitrocellulose membranes, and immunoblotted with anti-β-catenin antibody. Hippocampus β-catenin levels were determined by western blot analysis as described.

[4] = test system: CREB (Ser 129) and N′IRS-1 (Ser 332); assay: Phosphorylation of CREB and N'IRS-1 in HEK-293 cells expressing GSK-3β proteins; type: cell-based; details: forskolin or PMA treated, compared with WT-GSK-3β
Procedure: The role of Phe 93 in substrate binding by employing a cellular system and protein substrates (i.e., not peptides) was further explored. To this end, the WT-GSK-3β and F93A mutant were expressed in HEK-293 cells together with GSK-3 substrates CREB or N′IRS-1 (the N-terminal region of IRS-1). Because GSK-3 requires pre-phosphorylation of its substrates, the cells were treated with forskolin to enhance CREB phosphorylation via activation of cAMP dependent kinase (PKA), or with phorbol ester (PMA) to enhance N′IRS-1 phosphorylation via activation of protein kinase C (PKC). The phosphorylation of CREB at serine 129, and N′IRS-1 at serine 332 (both GSK-3 phosphorylation sites) was then examined.
Thus, HEK293 cells were co-transfected with WT-GSK-3β or F93A plasmids together with construct coding for CREB. Cells were treated with forskolin (10 μM, 1 hour), and cell extracts were subjected to western blot analysis using anti-phospho CREB (Ser 129/133) antibody, as presented in FIG. 1D. Expression levels of CREB and GSK-3 proteins are indicated.
Similar assay was conducted using N′IRS-1 cDNA construct instead of CREB, and cells were treated with PMA (100 nM, 30 minutes). Expression levels of N′IRS-1 and GSK-3β are indicated. Results are means of three independent experiments±SEM.

pGS-1 = assay: In vitro kinase assay of GSK-3β mutants, substrate pGS-1; type: biochemical; details: WT set to 100%; mean of 2-3 experiments ± SEM
Procedure: (§2) HEK-293 cells were grown in Dulbecco's Modified Eagle's Medium (DMEM), supplemented with 10% fetal calf serum (FCS), 2 mM glutamine, 100 units/ml penicillin, and 100 μg/ml streptomycin. HEK-293 cells were transiently transfected with indicated constructs, using calcium phosphate method as described [Ilouz et al. (2006) supra]. Cells were lysed in ice-cold buffer G (20 mM Tris-HCl, pH 7.5, 10 mM β-glycerophosphate, 10% glycerol, 1 mM EGTA, 1 mM EDTA, 50 mM NaF, 5 mM sodium pyrophosphate, 0.5 mM orthovanadate, 1 mM benzamidine, 10 μg/ml leupeptin, 5 μg/ml aprotinin, 1 μg/ml pepstatin, and 0.5% Triton X100). Cell extracts were centrifuged for 30 minutes at 15,000×g. Supernatants were collected, and equal amounts of proteins were boiled with SDS sample buffer and subjected to gel electrophoresis (7.5-12% polyacrylamide gel), transferred to nitrocellulose membranes, and immunoblotted with indicated antibodies. For partial purification, cells were lysed in buffer H (20 mM Tris, pH 7.3, 1 mM EGTA, 1 mM EDTA, 1 mM orthovanadate, 25 μg/ml leupeptin, 25 μg/ml aprotinin, and 25 μg/ml pepstatin A, 500 nM microcystine LR, and 0.25% Triton X100). The lysates were centrifuged at 15,000×g. The resulting supernatants were passed through DE-52 (Whatman, Maidstone, England) mini-columns that were equilibrated with buffer H. GSK-3β proteins were eluted with the same buffer containing 0.02 M NaCl. Equal amounts of proteins were used for in vitro kinase assays. In all experiments, GSK-3 mutants were expressed at levels at least 5-fold higher than levels of the endogenous GSK-3β as determined by western blot analysis.
as §1
(§3) The GSK-3β mutants were partially purified by ion exchange chromatography, and their abilities to phosphorylate peptide substrates were tested in in vitro kinase assays. The substrates were: pIRS-1, p9CREB, and pGS-1, phosphorylated peptides derived from the insulin receptor substrate-1 (IRS-1), cAMP responsive element binding protein (CREB), and glycogen synthase, respectively.
(§4) The results are presented in Table 1, as the percentage of substrate phosphorylation (indicated peptides, pIRS-1, p9CREB and pGS-1) obtained with WTGSK-3β which was set to 100%, and are mean of 2-3 independent experiments each performed in duplicates±SEM.

pIRS-1 = assay: In vitro kinase assay of GSK-3β mutants, substrate pIRS-1; type: biochemical; details: WT set to 100%; mean of 2-3 experiments ± SEM
Procedure: as §2, §1, §3, §4

p9CREB = assay: In vitro kinase assay of GSK-3β mutants, substrate p9CREB; type: biochemical; details: WT set to 100%; mean of 2-3 experiments ± SEM
Procedure: as §2, §1, §3, §4

Molecule: CCCCCCCCCCCCCC(=O)NCC(=O)N[C@@H](CCCCN)C(=O)N[C@@H](CCC(=O)O)C(=O)N[C@@H](C)C(=O)N1CCC[C@H]1C(=O)N1CCC[C@H]1C(=O)N[C@@H](C)C(=O)N1CCC[C@H]1C(=O)N1CCC[C@H]1C(=O)N1CCC[C@H]1C(=O)N[C@@H](COP(=O)(O)O)C(=O)N1CCC[C@H]1C(=O)O [L806-mts] (Myristoyl-GKEAPPAPPP[pS]P-OH; C-terminus assumed)
Levels of β-catenin (β-catenin [1]): Elevation of β-catenin
IC50 (GSK-3β): ~1000 nM
Phosphorylation of HSF-1 [2]: Reduced phosphorylation
Hippocampus β-catenin levels (β-catenin [3]): elevation in β-catenin levels

Substrate phosphorylation (% of WTGSK-3β), pGS-1 (pGS-1): 13 ± 7 % of WTGSK-3β
Substrate phosphorylation (% of WTGSK-3β), pIRS-1 (pIRS-1): 42 ± 13 % of WTGSK-3β
Substrate phosphorylation (% of WTGSK-3β), p9CREB (p9CREB): 46 ± 2 % of WTGSK-3β
B1: F93A: GSK-3β mutant, F93 replaced by alanine, SEQ ID NO:9 (protein)
chain: MSGRPRTTSFAESCKPVQQPSAFGSMKVSRDKDGSKVTTVVATPGQGPDRPQEVSYTDTKVIGNGSFGVVYQAKLCDSGELVAIKKVLQDKRAKNRELQIMRKLDHCNIVRLRYFFYSSGEKKDEVYLNLVLDYVPETVYRVARHYSRAKQTLPVIYVKLYMYQLFRSLAYIHSFGICHRDIKPQNLLLDPDTAVLKLCDFGSAKQLVRGEPNVSYICSRYYRAPELIFGATDYTSSIDVWSAGCVLAELLLGQPIFPGDSGVDQLVEIIKVLGTPTREQIREMNPNYTEFKFPQIKAHPWTKDSSGTGHFTSGVRVFRPRTPPEAIALCSRLLEYTPTARLTPLEACAHSFFDELRDPNVKLPNGRDTPALFNFTTQELSSNPPLATILIPPHARIQAAASTPTNATAASDANTGDRGQTNNAASASASNST
modifications: GSK-3 beta, F93A mutant
Phosphorylation of CREB and N′IRS-1 in cells [4]: did not enhance the phosphorylation
